According to PMC8245773, “Brevibacillin 2V, a Novel Antimicrobial Lipopeptide With an Exceptionally Low Hemolytic Activity” (Frontiers in Microbiology, 2021):

Experiments:
Assay in all cases: Synergy assay, checkerboard method
K. pneumoniae LMG20218 = conditions: for FICI: synergistic ≤0.5; for MIC of antibiotic at brevibacillin 0 mg/L / MIC of antibiotic at brevibacillin 2V 0 mg/L / MIC of antibiotic at brevibacillin I 0 mg/L / MIC of antibiotic at brevibacillin V 0 mg/L: checkerboard, 5 × 10^5 cfu/ml, 37°C, 20 h, antibiotic alone
Experimental: (§1) Briefly, antibiotics were diluted in twofold series, while brevibacillins were added at a certain final concentration of 1, 2, or 4 mg/L. Indicator strains were added at a final concentration of 5 × 10^5 cfu/ml. After incubation at 37°C for 20 h, the OD600 of plates was determined. The fractional inhibitory concentration index (FICI) was calculated using the following formula: FICI = (MIC compound A in combination with B / MIC compound A) + (MIC compound B in combination with A / MIC compound B).

E. coli ATCC 25922 = conditions: for FICI: synergistic ≤0.5; for MIC of antibiotic at brevibacillin 0 mg/L / MIC of antibiotic at brevibacillin 2V 0 mg/L / MIC of antibiotic at brevibacillin I 0 mg/L / MIC of antibiotic at brevibacillin V 0 mg/L: checkerboard, 5 × 10^5 cfu/ml, 37°C, 20 h, antibiotic alone
Experimental: as §1

A. baumannii ATCC17978 = conditions: for FICI / MIC of antibiotic at brevibacillin 0 mg/L / MIC of antibiotic at brevibacillin 2V 0 mg/L / MIC of antibiotic at brevibacillin I 0 mg/L / MIC of antibiotic at brevibacillin V 0 mg/L: A. baumannii ATCC17978; for FICI: synergistic ≤0.5; for MIC of antibiotic at brevibacillin 0 mg/L / MIC of antibiotic at brevibacillin 2V 0 mg/L / MIC of antibiotic at brevibacillin I 0 mg/L / MIC of antibiotic at brevibacillin V 0 mg/L: checkerboard, 5 × 10^5 cfu/ml, 37°C, 20 h, antibiotic alone
Experimental: as §1

P. aeruginosa LMG6395 = conditions: for FICI: synergistic ≤0.5; for MIC of antibiotic at brevibacillin 0 mg/L / MIC of antibiotic at brevibacillin 2V 0 mg/L / MIC of antibiotic at brevibacillin I 0 mg/L / MIC of antibiotic at brevibacillin V 0 mg/L: checkerboard, 5 × 10^5 cfu/ml, 37°C, 20 h, antibiotic alone
Experimental: as §1

[1] = antibiotic + brevibacillin 2V, E. coli ATCC 25922
[2] = antibiotic + brevibacillin I, E.coli ATCC 25922
[3] = antibiotic + brevibacillin V, E.coli ATCC 25922
[4] = antibiotic + brevibacillin, E.coli ATCC 25922

Structure (SMILES)	MIC of antibiotic at brevibacillin 0 mg/L (K. pneumoniae LMG20218) [µg/mL]	MIC of antibiotic at brevibacillin 2V 0 mg/L (K. pneumoniae LMG20218) [µg/mL]	MIC of antibiotic at brevibacillin I 0 mg/L (K. pneumoniae LMG20218) [µg/mL]	MIC of antibiotic at brevibacillin V 0 mg/L (K. pneumoniae LMG20218) [µg/mL]	FICI (E. coli ATCC 25922; [1])	FICI (E. coli ATCC 25922; [2])	FICI (E. coli ATCC 25922; [3])	FICI (E. coli ATCC 25922; [4])	MIC of antibiotic at brevibacillin 0 mg/L (E. coli ATCC 25922; E.coli ATCC 25922) [µg/mL]	MIC of antibiotic at brevibacillin 2V 0 mg/L (E. coli ATCC 25922; E.coli ATCC 25922) [µg/mL]	MIC of antibiotic at brevibacillin I 0 mg/L (E. coli ATCC 25922; E.coli ATCC 25922) [µg/mL]	MIC of antibiotic at brevibacillin V 0 mg/L (E. coli ATCC 25922; E.coli ATCC 25922) [µg/mL]	FICI (A. baumannii ATCC17978; antibiotic + brevibacillin 2V)	FICI (A. baumannii ATCC17978; antibiotic + brevibacillin I)	FICI (A. baumannii ATCC17978; antibiotic + brevibacillin V)	FICI (A. baumannii ATCC17978; antibiotic + brevibacillin)	MIC of antibiotic at brevibacillin 0 mg/L (A. baumannii ATCC17978) [µg/mL]	MIC of antibiotic at brevibacillin 2V 0 mg/L (A. baumannii ATCC17978) [µg/mL]	MIC of antibiotic at brevibacillin I 0 mg/L (A. baumannii ATCC17978) [µg/mL]	MIC of antibiotic at brevibacillin V 0 mg/L (A. baumannii ATCC17978) [µg/mL]	other results
CC[C@H]1OC(=O)[C@H](C)[C@@H](O[C@H]2C[C@@](C)(OC)[C@@H](O)[C@H](C)O2)[C@H](C)[C@@H](O[C@@H]2O[C@H](C)C[C@H](N(C)C)[C@H]2O)[C@](C)(O)C[C@@H](C)CN(C)[C@H](C)[C@@H](O)[C@]1(C)O [Azithromycin]	16	16	16	16	0.281	0.375	0.563	0.188	2	2	2	2	0.531	0.516	1.016	0.531	16	16	16	16	FICI (K. pneumoniae LMG20218; antibiotic + brevibacillin 2V): 1.031; FICI (K. pneumoniae LMG20218; antibiotic + brevibacillin I): 1.016; FICI (K. pneumoniae LMG20218; antibiotic + brevibacillin V): 1.016; FICI (K. pneumoniae LMG20218; antibiotic + brevibacillin): 1.031; FICI (P. aeruginosa LMG6395; antibiotic + brevibacillin 2V): 0.266; FICI (P. aeruginosa LMG6395; antibiotic + brevibacillin I): 0.266; FICI (P. aeruginosa LMG6395; antibiotic + brevibacillin V): 0.516; FICI (P. aeruginosa LMG6395; antibiotic + brevibacillin): 0.516; MIC of antibiotic at brevibacillin 0 mg/L (P. aeruginosa LMG6395): 128 µg/mL; MIC of antibiotic at brevibacillin 2V 0 mg/L (P. aeruginosa LMG6395): 128 µg/mL; MIC of antibiotic at brevibacillin I 0 mg/L (P. aeruginosa LMG6395): 128 µg/mL; MIC of antibiotic at brevibacillin V 0 mg/L (P. aeruginosa LMG6395): 128 µg/mL
CCn1cc(C(=O)O)c(=O)c2ccc(C)nc21 [Nalidixic acid]	32	32	32	32	0.313	0.313	0.375	0.375	2	2	2	2	0.531	0.516	1.016	0.625	32	32	32	32	FICI (K. pneumoniae LMG20218; antibiotic + brevibacillin 2V): 0.531; FICI (K. pneumoniae LMG20218; antibiotic + brevibacillin I): 0.516; FICI (K. pneumoniae LMG20218; antibiotic + brevibacillin V): 1.016; FICI (K. pneumoniae LMG20218; antibiotic + brevibacillin): 0.563; FICI (P. aeruginosa LMG6395; antibiotic + brevibacillin 2V): 0.266; FICI (P. aeruginosa LMG6395; antibiotic + brevibacillin I): 0.266; FICI (P. aeruginosa LMG6395; antibiotic + brevibacillin V): 0.516; FICI (P. aeruginosa LMG6395; antibiotic + brevibacillin): 0.516; MIC of antibiotic at brevibacillin 0 mg/L (P. aeruginosa LMG6395): 256 µg/mL; MIC of antibiotic at brevibacillin 2V 0 mg/L (P. aeruginosa LMG6395): 256 µg/mL; MIC of antibiotic at brevibacillin I 0 mg/L (P. aeruginosa LMG6395): 256 µg/mL; MIC of antibiotic at brevibacillin V 0 mg/L (P. aeruginosa LMG6395): 256 µg/mL
CO[C@H]1/C=C/O[C@@]2(C)Oc3c(C)c(O)c4c(O)c(c(/C=N/N5CCN(C)CC5)c(O)c4c3C2=O)NC(=O)/C(C)=C\C=C\[C@H](C)[C@H](O)[C@@H](C)[C@@H](O)[C@@H](C)[C@H](OC(C)=O)[C@@H]1C [Rifampicin]	64	64	64	64	0.313	0.531	0.375	0.250	4	4	4	4	0.375	0.516	0.516	0.281	32	32	32	32	FICI (P. aeruginosa LMG6395; antibiotic + brevibacillin 2V): 0.516; FICI (P. aeruginosa LMG6395; antibiotic + brevibacillin I): 0.516; FICI (P. aeruginosa LMG6395; antibiotic + brevibacillin V): 0.516; FICI (P. aeruginosa LMG6395; antibiotic + brevibacillin): 0.281; MIC of antibiotic at brevibacillin 0 mg/L (P. aeruginosa LMG6395): 32 µg/mL; MIC of antibiotic at brevibacillin 2V 0 mg/L (P. aeruginosa LMG6395): 32 µg/mL; MIC of antibiotic at brevibacillin I 0 mg/L (P. aeruginosa LMG6395): 32 µg/mL; MIC of antibiotic at brevibacillin V 0 mg/L (P. aeruginosa LMG6395): 32 µg/mL
NCC[C@H](O)C(=O)N[C@@H]1C[C@H](N)[C@@H](O[C@H]2O[C@H](CN)[C@@H](O)[C@H](O)[C@H]2O)[C@H](O)[C@H]1O[C@H]1O[C@H](CO)[C@@H](O)[C@H](N)[C@H]1O [Amikacin]	0.5	0.5	0.5	0.5	0.188	0.281	0.250	0.156	4	4	4	4	0.141	0.078	0.094	0.094	16	16	16	16	FICI (K. pneumoniae LMG20218; antibiotic + brevibacillin 2V): 0.563; FICI (K. pneumoniae LMG20218; antibiotic + brevibacillin I): 0.563; FICI (K. pneumoniae LMG20218; antibiotic + brevibacillin V): 1.016; FICI (K. pneumoniae LMG20218; antibiotic + brevibacillin): 1.031; decrease of MIC of amikacin against A. baumannii (A. baumannii ATCC17978; in the presence of 4 mg/L brevibacillins): 32–64 folds; FICI (P. aeruginosa LMG6395; antibiotic + brevibacillin 2V): 0.266; FICI (P. aeruginosa LMG6395; antibiotic + brevibacillin I): 0.266; FICI (P. aeruginosa LMG6395; antibiotic + brevibacillin V): 0.266; FICI (P. aeruginosa LMG6395; antibiotic + brevibacillin): 0.266; MIC of antibiotic at brevibacillin 0 mg/L (P. aeruginosa LMG6395): 2 µg/mL; MIC of antibiotic at brevibacillin 2V 0 mg/L (P. aeruginosa LMG6395): 2 µg/mL; MIC of antibiotic at brevibacillin I 0 mg/L (P. aeruginosa LMG6395): 2 µg/mL; MIC of antibiotic at brevibacillin V 0 mg/L (P. aeruginosa LMG6395): 2 µg/mL
